Results from patent US6054435A, “6-O-substituted macrolides having antibacterial activity” (priority 1999, dated 2000).
Converted amounts (≈) assume the structure as drawn.

Legend:
Assay in all cases: in vitro antibacterial activity (MIC), agar dilution
Type in all cases: cell-based
[1] = test system: Staphylococcus aureus A-5278; conditions: organism code CC; BHI agar, 35-37° C., 20 to 24 hours; unit assumed
Summary of the method: (§1)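 Agar dilution in BHI agar, twelve successive compound dilutions. Inoculum 1:100, or 1:10 for slow-growing strains (e.g. Streptococcus), replicator-spotted. Read by eye; MIC = lowest concentration with no growth, slight haze or sparsely isolated colonies relative to growth control.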

[2] = test system: Staphylococcus aureus CMX 642A; conditions: organism code DD; BHI agar, 35-37° C., 20 to 24 hours; unit assumed
Summary of the method: as §1

[3] = test system: Mycobacterium smegmatis ATCC 114; conditions: organism code UU; BHI agar, 35-37° C., 20 to 24 hours; unit assumed
Summary of the method: as §1

[4] = test system: Streptococcus agalactiae CMX 508; conditions: organism code KK; BHI agar, 35-37° C., 20 to 24 hours; unit assumed
Summary of the method: as §1

Escherichia coli DC-2 = conditions: organism code SS; BHI agar, 35-37° C., 20 to 24 hours; unit assumed
Summary of the method: as §1

Escherichia coli SS = conditions: organism code RR; BHI agar, 35-37° C., 20 to 24 hours; unit assumed
Summary of the method: as §1

[5] = test system: Staphylococcus aureus CMX 553; conditions: organism code FF; BHI agar, 35-37° C., 20 to 24 hours; unit assumed
Summary of the method: as §1

[6] = test system: Streptococcus Pneumonia GYR 1171; conditions: organism code YY; BHI agar, 35-37° C., 20 to 24 hours; unit assumed
Summary of the method: as §1

[7] = test system: Streptococcus pyogenes EES61; conditions: organism code LL; BHI agar, 35-37° C., 20 to 24 hours; unit assumed
Summary of the method: as §1

[8] = test system: Streptococcus Pneumonia ATCC6303; conditions: organism code XX; BHI agar, 35-37° C., 20 to 24 hours; unit assumed
Summary of the method: as §1

[9] = test system: Staphylococcus aureus A5177; conditions: organism code BB; BHI agar, 35-37° C., 20 to 24 hours; unit assumed
Summary of the method: as §1

[10] = test system: Staphylococcus epidermidis 3519; conditions: organism code HH; BHI agar, 35-37° C., 20 to 24 hours; unit assumed
Summary of the method: as §1

[11] = test system: Haemophilis Influenzae DILL AMP R; conditions: organism code WW; BHI agar, 35-37° C., 20 to 24 hours; unit assumed
Summary of the method: as §1

Candida albicans CCH 442 = conditions: organism code TT; BHI agar, 35-37° C., 20 to 24 hours; unit assumed
Summary of the method: as §1

[12] = test system: Enterococcus faecium ATCC 8043; conditions: organism code II; BHI agar, 35-37° C., 20 to 24 hours; unit assumed
Summary of the method: as §1

[13] = test system: Micrococcus luteus ATCC 4698; conditions: organism code PP; BHI agar, 35-37° C., 20 to 24 hours; unit assumed
Summary of the method: (§2)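 BHI agar incorporation method; twelve compound concentrations. Streptococcus and other slow growers inoculated at 1:10, other strains at 1:100. Visual MIC read-out versus growth control.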

[14] = test system: Streptococcus bovis A-5169; conditions: organism code JJ; BHI agar, 35-37° C., 20 to 24 hours; unit assumed
Summary of the method: as §1

[15] = test system: Streptococcus Pneumonia 5649; conditions: organism code ZZA; BHI agar, 35-37° C., 20 to 24 hours; unit assumed
Summary of the method: as §1

[16] = test system: Staphylococcus aureus NCTC10649M; conditions: organism code EE; BHI agar, 35-37° C., 20 to 24 hours; unit assumed
Summary of the method: as §1

[17] = test system: Staphylococcus aureus ATCC 6538P; conditions: organism code AA; BHI agar, 35-37° C., 20 to 24 hours; unit assumed
Summary of the method: as §1

[18] = test system: Streptococcus pyogenes PIU 2548; conditions: organism code NN; BHI agar, 35-37° C., 20 to 24 hours; unit assumed
Summary of the method: as §1

[19] = test system: Streptococcus pyogenes 930; conditions: organism code MM; BHI agar, 35-37° C., 20 to 24 hours; unit assumed
Summary of the method: as §1

[20] = test system: Nocardia Asteroides ATCC9970; conditions: organism code VV; BHI agar, 35-37° C., 20 to 24 hours; unit assumed
Summary of the method: as §1

Escherichia coli JUHL = conditions: organism code QQ; BHI agar, 35-37° C., 20 to 24 hours; unit assumed
Summary of the method: as §1

[21] = test system: Micrococcus luteus ATCC 9341; conditions: organism code OO; BHI agar, 35-37° C., 20 to 24 hours; unit assumed
Summary of the method: as §2

[22] = test system: Staphylococcus aureus 1775; conditions: organism code GG; BHI agar, 35-37° C., 20 to 24 hours; unit assumed
Summary of the method: as §1

[23] = test system: Streptococcus Pneumonia 5979; conditions: organism code ZZ; BHI agar, 35-37° C., 20 to 24 hours; unit assumed
Summary of the method: as §1

Structure (SMILES)	MIC [1]	MIC [2]	MIC [3]	MIC [4]	MIC (Escherichia coli DC-2)	MIC (Escherichia coli SS)	MIC [5]	MIC [6]	MIC [7]	MIC [9]	MIC [10]	MIC (Candida albicans CCH 442)	MIC [12]	MIC [13]	MIC [14]	MIC [15]	MIC [16]	MIC [17]	MIC [18]	MIC [20]	also measured
CC[C@H]1OC(=O)[C@H](C)[C@@H](O[C@H]2C[C@@](C)(OC)[C@@H](O)[C@H](C)O2)[C@H](C)[C@@H](O[C@@H]2O[C@H](C)C[C@H](N(C)C)[C@H]2O)[C@](C)(O)C[C@@H](C)C(=O)[C@H](C)[C@@H](O)[C@]1(C)O [Ery. A, Erythromycin A, reference compound]	> 100 µg/mL	0.39 µg/mL (≈ 0.531 µM)	3.1 µg/mL (≈ 4.22 µM)	0.05 µg/mL (≈ 0.0681 µM)	> 100 µg/mL	0.78 µg/mL (≈ 1.06 µM)	0.39 µg/mL (≈ 0.531 µM)	0.06 µg/mL (≈ 0.0818 µM)	0.05 µg/mL (≈ 0.0681 µM)	3.1 µg/mL (≈ 4.22 µM)	0.39 µg/mL (≈ 0.531 µM)	> 100 µg/mL	0.05 µg/mL (≈ 0.0681 µM)	0.2 µg/mL (≈ 0.273 µM)	0.02 µg/mL (≈ 0.0273 µM)	16 µg/mL (≈ 21.8 µM)	0.39 µg/mL (≈ 0.531 µM)	0.2 µg/mL (≈ 0.273 µM)	6.2 µg/mL (≈ 8.45 µM)	0.1 µg/mL (≈ 0.136 µM)	MIC [8]: 0.06 µg/mL (≈ 0.0818 µM); MIC [11]: 4 µg/mL (≈ 5.45 µM); MIC [19]: > 100 µg/mL; MIC (Escherichia coli JUHL): > 100 µg/mL; MIC [21]: 0.05 µg/mL (≈ 0.0681 µM); MIC [22]: > 100 µg/mL
CC[C@H]1OC(=O)[C@H](C)C(=O)[C@H](C)[C@@H](O[C@@H]2O[C@H](C)C[C@H](N(C)C)[C@H]2O)[C@](C)(OCC#Cc2ccc(-c3cccc(Cl)c3)s2)C[C@@H](C)C(=O)[C@H](C)[C@H]2NC(=O)O[C@@]21C [Example 16]	25 µg/mL (≈ 30.1 µM)	0.2 µg/mL (≈ 0.241 µM)	0.2 µg/mL (≈ 0.241 µM)	0.02 µg/mL (≈ 0.0241 µM)	> 100 µg/mL	0.39 µg/mL (≈ 0.47 µM)	0.2 µg/mL (≈ 0.241 µM)	0.03 µg/mL (≈ 0.0362 µM)	0.1 µg/mL (≈ 0.121 µM)	0.2 µg/mL (≈ 0.241 µM)	0.2 µg/mL (≈ 0.241 µM)	> 100 µg/mL	0.1 µg/mL (≈ 0.121 µM)	0.2 µg/mL (≈ 0.241 µM)	0.02 µg/mL (≈ 0.0241 µM)	0.25 µg/mL (≈ 0.301 µM)	0.2 µg/mL (≈ 0.241 µM)	0.1 µg/mL (≈ 0.121 µM)	0.2 µg/mL (≈ 0.241 µM)	0.2 µg/mL (≈ 0.241 µM)	MIC [23]: 2 µg/mL (≈ 2.41 µM); MIC [8]: 0.03 µg/mL (≈ 0.0362 µM); MIC [11]: 4 µg/mL (≈ 4.82 µM); MIC (Escherichia coli JUHL): > 100 µg/mL; MIC [21]: 0.02 µg/mL (≈ 0.0241 µM); MIC [22]: 12.5 µg/mL (≈ 15.1 µM)
CC[C@H]1OC(=O)[C@H](C)C(=O)[C@H](C)[C@@H](O[C@@H]2O[C@H](C)C[C@H](N(C)C)[C@H]2O)[C@](C)(OCC#Cc2ccc(-c3cc(Cl)cc(Cl)c3)s2)C[C@@H](C)C(=O)[C@H](C)[C@H]2NC(=O)O[C@@]21C [Example 17]	12.5 µg/mL (≈ 14.5 µM)	0.78 µg/mL (≈ 0.903 µM)	0.78 µg/mL (≈ 0.903 µM)	0.2 µg/mL (≈ 0.232 µM)	> 100 µg/mL	12.5 µg/mL (≈ 14.5 µM)	0.78 µg/mL (≈ 0.903 µM)	0.125 µg/mL (≈ 0.145 µM)	0.39 µg/mL (≈ 0.451 µM)	0.78 µg/mL (≈ 0.903 µM)	0.78 µg/mL (≈ 0.903 µM)	> 100 µg/mL	0.78 µg/mL (≈ 0.903 µM)	0.78 µg/mL (≈ 0.903 µM)	0.2 µg/mL (≈ 0.232 µM)	1 µg/mL (≈ 1.16 µM)	1.56 µg/mL (≈ 1.81 µM)	0.39 µg/mL (≈ 0.451 µM)	0.39 µg/mL (≈ 0.451 µM)	0.78 µg/mL (≈ 0.903 µM)	MIC [23]: 1 µg/mL (≈ 1.16 µM); MIC [11]: 8 µg/mL (≈ 9.26 µM); MIC [19]: 3.1 µg/mL (≈ 3.59 µM); MIC (Escherichia coli JUHL): > 100 µg/mL; MIC [21]: 0.39 µg/mL (≈ 0.451 µM); MIC [22]: 12.5 µg/mL (≈ 14.5 µM)
CC[C@H]1OC(=O)[C@H](C)C(=O)[C@H](C)[C@@H](O[C@@H]2O[C@H](C)C[C@H](N(C)C)[C@H]2O)[C@](C)(OC/C=C/c2cncc(-c3ccsc3)c2)C[C@@H](C)C(=O)[C@H](C)[C@H]2NC(=O)O[C@@]21C [Example 49]	> 100 µg/mL	0.1 µg/mL (≈ 0.125 µM)	0.39 µg/mL (≈ 0.489 µM)	0.02 µg/mL (≈ 0.0251 µM)	50 µg/mL (≈ 62.7 µM)	0.39 µg/mL (≈ 0.489 µM)	0.05 µg/mL (≈ 0.0627 µM)	≤ 0.004 µg/mL	0.02 µg/mL (≈ 0.0251 µM)	0.05 µg/mL (≈ 0.0627 µM)	0.1 µg/mL (≈ 0.125 µM)	> 100 µg/mL	0.05 µg/mL (≈ 0.0627 µM)	0.05 µg/mL (≈ 0.0627 µM)	0.02 µg/mL (≈ 0.0251 µM)	0.03 µg/mL (≈ 0.0376 µM)	0.1 µg/mL (≈ 0.125 µM)	0.1 µg/mL (≈ 0.125 µM)	0.2 µg/mL (≈ 0.251 µM)	0.05 µg/mL (≈ 0.0627 µM)	MIC [23]: 32 µg/mL (≈ 40.1 µM); MIC [8]: ≤ 0.004 µg/mL; MIC [19]: 25 µg/mL (≈ 31.3 µM); MIC (Escherichia coli JUHL): 50 µg/mL (≈ 62.7 µM); MIC [21]: 0.02 µg/mL (≈ 0.0251 µM); MIC [22]: > 100 µg/mL
CC[C@H]1OC(=O)[C@H](C)C(=O)[C@H](C)[C@@H](O[C@@H]2O[C@H](C)C[C@H](N(C)C)[C@H]2O)[C@](C)(OC/C=C/c2cnc(-c3ncc(Br)s3)s2)C[C@@H](C)C(=O)[C@H](C)[C@H]2NC(=O)O[C@@]21C [Example 56]	100 µg/mL (≈ 113 µM)	0.2 µg/mL (≈ 0.226 µM)	0.39 µg/mL (≈ 0.441 µM)	0.05 µg/mL (≈ 0.0566 µM)	> 100 µg/mL	0.78 µg/mL (≈ 0.882 µM)	0.2 µg/mL (≈ 0.226 µM)	0.015 µg/mL (≈ 0.017 µM)	0.05 µg/mL (≈ 0.0566 µM)	0.2 µg/mL (≈ 0.226 µM)	0.2 µg/mL (≈ 0.226 µM)	> 100 µg/mL	0.05 µg/mL (≈ 0.0566 µM)	0.39 µg/mL (≈ 0.441 µM)	0.05 µg/mL (≈ 0.0566 µM)	0.25 µg/mL (≈ 0.283 µM)	0.39 µg/mL (≈ 0.441 µM)	0.2 µg/mL (≈ 0.226 µM)	0.39 µg/mL (≈ 0.441 µM)	0.39 µg/mL (≈ 0.441 µM)	MIC [23]: 4 µg/mL (≈ 4.53 µM); MIC [8]: 0.015 µg/mL (≈ 0.017 µM); MIC [11]: 8 µg/mL (≈ 9.05 µM); MIC (Escherichia coli JUHL): > 10 µg/mL; MIC [21]: 0.05 µg/mL (≈ 0.0566 µM); MIC [22]: 50 µg/mL (≈ 56.6 µM)
